This is an account of results in patent publication US20100034944A1, “Use of Avocado Derivatives in Flavor Applications” (priority 2008, published 2010).

SMILES strings stand for the structures.

A short description of this assay: flavor descriptors of compounds tasted in salt water, chicken broth, IMP/MSG and NaCl/IMP/MSG solutions.

For the compound `C=CCCCCCCCCCCCC(O)CC(O)COC(C)=O` (stereo not drawn) [2,4-dihydroxy-16-heptadecen-1-yl acetate], the “flavor descriptors, NaCl 0.1% IMP 0.00359 g/L / MSG 0.0508 g/L” value (compound 10 ppm in NaCl/IMP/MSG solution) is listed as “Very umami”. Further, the “flavor descriptors, IMP 0.00359 g/L / MSG 0.0508 g/L” value (compound 20 ppm in IMP/MSG solution) was “Nice umami”.

Consider `C#CCCCCCCCCCCCC(O)CC(O)COC(C)=O` (stereo not drawn) [2,4-Dihydroxy-16-heptadecyn-1-yl acetate, 2,4-dihydroxy-16-heptadecyn-1-yl acetate], for which the “flavor descriptors, Chicken Broth College Inn 50% reduced Na; Fat free” value (compound 10 ppm in chicken broth) is reported as “Bitter”.
